Our source for the GI50 and TGI values is PubChem BioAssay (NCI).

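Dose response: 5 concentrations. Exposure: 48 h. Format: 96-well plates. Endpoint: linear interpolation; highest concentration if not reached. GI50 = concentration required for 50% inhibition of growth. At the TGI there is no net growth.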 Bounds are passed on as bounds.

Common to all, as to assay: DTP human tumour cell line panel, 48 h
Experiment [1] concerns DU-145 prostate.
In experiment [2] the test system is SW-620 colon.
The test system of experiment [3] is HOP-62 NSCLC.
Experiment [4] deals with UACC-62 melanoma.
The subject of experiment [5] is MDA-MB-435.
In experiment [6] the test system is OVCAR-3 ovarian.
Experiment [7] has as its system RPMI-8226 leukemia.
Experiment [8] deals with SK-MEL-28 melanoma.
The subject of experiment [9] is BT-549 breast.
Experiment [10] has as its system EKVX NSCLC.

For orientation: GI50 means the concentration at which growth is held to half of that of the control. In general, TGI refers to the concentration giving total growth inhibition. As to `O=C(O)C1C2C=CC(C2)C1C(=O)O` (configuration not stated), the GI50 in [1], in [2], in experiment [3], in [4], in [5] and in experiment [6] was greater than 100 µM each time. Besides, the GI50 in experiment [7], in experiment [8] and in experiment [9] was greater than 100 µM throughout. The TGI in [1], in experiment [2], in [3], in [4], in experiment [5] and in experiment [6] was greater than 100 µM throughout. Besides, the TGI in [7], in experiment [8] and in [9] was greater than 100 µM in each case.

`COC1=C(Br)C(O)C2(C=C1Br)CC(C(=O)NCCCCNC(=O)C1=NOC3(C=C(Br)C(OC)=C(Br)C3O)C1)=NO2` (configuration not stated): the TGI in experiment [1] was greater than 100 µM; in [2], greater than 100 µM; in experiment [3], 79 µM; in experiment [4], greater than 100 µM; in [5], 49.8 µM; in [6], 39.4 µM. Moreover, the TGI in experiment [7] is 50.5 µM; in experiment [8] it was greater than 100 µM; in experiment [9], greater than 100 µM.

For `CCCC[n+]1c(/C=C\c2c(OC)cc(OC)cc2OC)ccc2ccccc21`, the GI50 was 1.04 µM in [1]; 0.814 µM in [2]; 2.58 µM in experiment [3]; 0.777 µM in experiment [4]; 0.393 µM in experiment [5]; 0.515 µM in experiment [6]. For the same compound, the GI50 in experiment [7] was 0.279 µM; in experiment [8] it was 0.601 µM; in experiment [9] it was 0.738 µM. For the same compound, the TGI was 11.1 µM in experiment [1]; 10 µM in [2]; 10.5 µM in experiment [3]; 2.34 µM in experiment [4]; 1.87 µM in experiment [5]; 2.57 µM in experiment [6]. Besides, the TGI in [7] was 2.73 µM; in experiment [8], 2.75 µM; in [9], 3.19 µM.

With `COc1cccc(-n2cc(-c3nc(Nc4cc(C)[nH]n4)c4ccccc4n3)nn2)c1`, the GI50 in experiment [1] is 5.51 µM; in experiment [2] it was 5.22 µM; in [3], 1.64 µM; in experiment [4], 2.86 µM; in [5], 2.24 µM; in experiment [6], 5.71 µM. For the same compound, the GI50 is 3.57 µM in experiment [7], 6.05 µM in experiment [8] and 7.04 µM in experiment [9]. Further, the TGI turned out to be 11.7 µM in [1]; 14.9 µM in experiment [2]; 8.4 µM in experiment [3]; 11.3 µM in [4]; 9.18 µM in [5]; 12.6 µM in [6]. In addition, the results for the TGI in experiment [7], in [8] and in [9] were 13.8 µM, 13.9 µM and 13.5 µM, respectively.

As to `CC(C)=CCC1=C(OCC(=O)O)C(=O)c2ccccc2C1=O`, the TGI was greater than 100 µM in [1]; 76.6 µM in experiment [2]; greater than 100 µM in experiment [3]; 37.7 µM in experiment [4]; greater than 100 µM in experiment [10]; 29 µM in [5]. Besides, the TGI in experiment [7], in experiment [8] and in experiment [9] was greater than 100 µM throughout.

With `O=[N+]([O-])c1ccc(Sc2nc(Cl)nc(NC3CCCC3)n2)cc1`, the GI50 in experiment [1] is 7.99 µM; in experiment [2], 4.78 µM; in [3] it was greater than 10 µM; in experiment [4], greater than 10 µM; in experiment [5], greater than 10 µM; in experiment [6], greater than 10 µM. Also, the GI50 is greater than 10 µM in experiment [7], 7 µM in experiment [8] and greater than 10 µM in [9]. Moreover, the TGI in experiment [1], in [2], in experiment [3], in [4], in experiment [5] and in experiment [6] was greater than 10 µM throughout. Further, the TGI in [7], in experiment [8] and in experiment [9] was greater than 10 µM throughout.

Consider `COc1ccc2c(c1)C1OCCNC1CC2` (configuration not stated), for which the TGI in experiment [1], in [2], in [3], in experiment [4], in experiment [10] and in experiment [5] was greater than 100 µM in each case. Besides, the TGI in experiment [7], in experiment [8] and in [9] was greater than 100 µM throughout.

Take `CCOC(=O)c1ccc2c(c1)nc(/C=C/c1ccc(Cl)cc1)n2-c1cc(C(C)(C)C)[nH]n1`: the GI50 in experiment [1] is 21.5 µM; in experiment [2], 12.8 µM; in experiment [3], 5.24 µM; in [4], 1.47 µM; in [5], 10.5 µM; in [6], 2.86 µM. Besides, the GI50 in [7] was 8.14 µM; in experiment [8] it was 3.51 µM; in experiment [9], 4.54 µM. The TGI is greater than 100 µM in experiment [1]; greater than 100 µM in [2]; 28.8 µM in [3]; 4.79 µM in experiment [4]; greater than 100 µM in experiment [5]; 8.26 µM in experiment [6]. Also, the TGI in experiment [7] was greater than 100 µM; in experiment [8], 40.3 µM; in [9], 25.6 µM.
